# Patent US20130190394A1, “Applications Of Arctigenin In Formulating Drugs For Preventing Or Treating Diseases Related To Red Blood Cell Reduction” (priority 2010, published 2013)
# Structures can show the parent of a compound that is named as a salt.
# How the values were obtained:
# [1] = test system: Tumor-bearing mice (murine cancer cell line s180); experiment: Effects of Arctigenin on myelosuppression caused by chemotherapy in tumor-bearing mice (blood routine examination); assay type: in vivo, Kunming mice; details: for Neutrophil / White Blood Cells / platelet: s180 tumor-bearing mice, 10 days once per day, Docetaxel 75 mg/m^2/d, Imatinib Mesylate 222.2 mg/m^2/d tail vein, Arctigenin 10 mg/m^2/d peritoneal, n=10
# Method: (§1) The cell suspension was injected into abdominal cavity of mice under sterile conditions. The mice were sacrificed by cervical dislocation at 7 days after inoculation when the abdominal cavity expanded obviously, and then soaked in a flask with 75% ethanol for 2-3 min. The sterilized mice were placed on a superclean bench with abdomen exposed. The ascites were taken with sterile injectors and stored in sterile vials for further use. The ascites was counted by Trypan blue staining, and then diluted to 2.0×10^7 cell/ml with physiological saline. The animals were inoculated with the dilutions in the right armpit at 0.2 ml/animal.
# The inoculated animals were divided randomly into following six groups with 10 animals each group (F:M=1:1): • 1. Model Group (Group M): receiving peritoneal injection of 0.9% physiological saline; • 2. Docetaxel Group (Group D): receiving 75 mg/m^2/d Docetaxel; • 3. […] Arctigenin Group (Group A): receiving 10 mg/m^2/d Arctigenin; • 5. Docetaxel plus Arctigenin Group (Group D+A): receiving 75 mg/m^2/d Docetaxel plus 10 mg/m^2/d Arctigenin; • 6.
# (§2) Docetaxel and Imatinib Mesylate were administered via tail vein injection at dosages of 20 ml/kg. Arctigenin was administered via peritoneal injection at a dosage of 10 ml/kg. The administration was given to each group once per day for 10 days in total. During the experimental process, the animals were observed everyday for their diets, survivals and behaviors and weighted every day. At the end of the experiment, the animals were anaesthetized and anatomize to draw blood from abdominal vena cava for blood routine examination, including total white blood cell count, total platelet count and neutrophil count.
# [2] = Body weight and tolerability of tumor-bearing mice during administration; assay type: in vivo, Kunming mice; details: for Body weight before administration: mouse, in vivo
# Method: as §1, with “The murine cancer cell line s180 was cultured in 1640 culture medium at 37° C., 5% CO2, sub-cultured every two days on average till logarithmic growth phase and then prepared into single cell suspension at 3.0×10^7 cell/ml with physiological saline. The cell” for “The cell”
# The inoculated animals were divided randomly into following six groups with 10 animals each group (F:M=1:1): • 1. Model Group (Group M): receiving peritoneal injection of 0.9% physiological saline; • 2. Docetaxel Group (Group D): receiving 75 mg/m^2/d Docetaxel; • 3. Imatinib Mesylate Group (Group IM): receiving 222.2 mg/m^2/d Imatinib Mesylate; • 4. Arctigenin Group (Group A): receiving 10 mg/m^2/d Arctigenin; • 5. Docetaxel plus Arctigenin Group (Group D+A): receiving 75 mg/m^2/d Docetaxel plus 10 mg/m^2/d Arctigenin; • 6. Imatinib Mesylate plus Arctigenin Group (Group IM+A): receiving 222.2 mg/m^2/d Imatinib Mesylate plus 10 mg/m^2/d Arctigenin.
# as §2
# [3] = test system: mice received ^60Co radiation at 4Gy; experiment: Effects of Arctigenin on blood cell counts of mice under 60Co radiation; assay type: in vivo, Kunming mice
# Text: 1.1 Animals: Kunming mice (purchased from National Institute for the Control of Pharmaceutical and Biological Products, China; Laboratory Animal NO: SCXK II-00-0010; female/male ratio at 1:1; Age: 7 weeks; […] The rest mice were included in the experiment. The mice fulfilled the experimental requirements after radiation were divided randomly into the following groups of: model group, group of burdock extract and Arctigenin group (each group: n=10; F/M=1:1). Each group was subjected to treatment or administration as follows: • 1. Normal Group (Group N): peritoneal injection of 0.9% physiological saline at a volume of 10 ml/kg; • 2. Model Group (Group M): peritoneal injection of 0.9% physiological saline at a dose of […]; • 3. Group of burdock Extract (Group E): peritoneal injection of water […] of Arctium lappa at a dose of 3.5 ml/kg/d; • 4. Arctigenin Group (Group A): peritoneal injection of 10 mg/kg/d Arctigenin at a volume of 10 ml/kg. Said burdock extract was prepared by: 1) placing burdock in a pot, adding water till the plant was immerged; 2) soaking burdock for 30 min for promoting the extraction of the effective components; 3) rapidly heating till boiling, fully boiling for 1-3 min, further heating for 20-30 min for concentration, and filtrating through sterile gauzes into a beaker; and 4) mixing the first dose with re-extracted agents uniformly after the first extraction for balancing their effects. 200 ml water extracts were prepared from 1 kg burdock. The administration was given to each group once per day for 10 days in total. During the experimental process, the animals were observed everyday for their diets, survivals and behaviors and weighted every day. At the end of the experiment, the animals were anaesthetized and anatomize to take blood from abdominal vena cava for blood routine examination, including total white blood cell count and total platelet count.
# NOD mouse = experiment: Effects of Arctigenin on white blood cell and platelet of NOD mouse; assay type: in vivo, NOD/Ltj mice; details: for White Blood Cells / platelets: NOD/Ltj mice, n=13
# Text: Non-obese diabetic or NOD mice is a large mouse strain, including NOD/Scid, NOD/Ltj mice and the like. Yi Feng (Yi Feng, et al., “In vitro Expansion of Cord Blood Megakaryocyte Progenitor”, ACTA Academiae Medicinae Sinicae, Vol. 27, NO. 2, pp 199-204) directly expanded megakaryocyte progenitor from cord blood CD34+ cells by using thrombopoietin (TPO), interleukin-11 (IL-11) and heparin in combination. Intravenous infusion of the megakaryocytes expanded for 7 days (at a concentration of 5×10^6) into NOD/SCID mice received pre-treatment of radiation could accelerate the recovery of platelet and white blood cell account and improved the survival of the mice.
# 1.1 Animals: 52 NOD/Ltj mice (purchased from Vital River Laboratory Animal Technology Co., Ltd., Beijing; Laboratory Animal NO: SCXK (BJ) 2006-2009), female, Age: 5 weeks, Body weight: 16-20 g.
# After one week of adaptive feeding, healthy NOD mice aged of 5 weeks were divided randomly into 4 groups: • I. Model Control Group: 13 animals; • II. Positive Control Group: 13 animals receiving gavage of interleukin at dose of 10.0 mg/kg every day; • III. Low-dose Arctigenin Group: 13 animals receiving gavage of […] at dose of 30 mg/kg every day; • IV. High-dose Arctigenin Group: 13 animals receiving gavage of […] at dose of 60 mg/kg every day.
# The administration was given consecutively to each group once per day, and stopped after 15 days. The animals were then anaesthetized (3% pentobarbital sodium via intraperitoneal injection at 0.1˜0.15 ml/animal) and 1 ml blood was taken via abdominal vena cava for blood routine examination.
# [4] = mice after 60Co 4 Gy whole body radiation, peritoneal injection once per day for 10 days, Arctigenin 10 mg/kg/d, burdock water extract 3.5 ml/kg/d, n=10
# [5] = high-dose, gavage 60 mg/kg every day for 15 days
# [6] = low-dose, gavage 30 mg/kg every day for 15 days
SMILES,Neutrophil [1],White Blood Cells [1],platelet [1],"Neutrophil numbers in comparison with Group M ([1]; tumor-bearing mice, in words)",Body weight before administration [2] [g],"Total white blood cell count and total neutrophil count compared with the Docetaxel group and the imatinib mesylate group ([1]; tumor-bearing mice, P<0.01, in words)","Total white blood cell count and total neutrophil count compared with the model group ([1]; tumor-bearing mice, P<0.01 or P<0.05, in words)","Toxic or side effects ([2]; tumor-bearing mice, 10 days administration, in words)","Total white blood cell count and platelet count in comparison with the model group ([3]; 60Co 4 Gy radiated mice, P<0.01 or P<0.05, in words)","White Blood Cells [3, 4]","platelet [3, 4]","White blood cell counts and platelet counts compared with model group (NOD mouse; NOD mice, low-dose and high-dose groups, in words)",White Blood Cells (NOD mouse; [5]),platelets (NOD mouse; [5]),White Blood Cells (NOD mouse; [6]),platelets (NOD mouse; [6])
"Cc1ccc(NC(=O)c2ccc(CN3CCN(C)CC3)cc2)cc1Nc1nccc(-c2cccnc2)n1 [Group IM, Imatinib Mesylate]",0.695 ± 0.09 10^9/L,2.703 ± 0.37 10^9/L,432.9 ± 34.8 10^9/L,decreased significantly,21.3 ± 2.3,,,,,,,,,,,
COc1cc(C[C@H]2C(=O)OC[C@@H]2Cc2ccc(OC)c(OC)c2)ccc1O [Arctigenin],1.316 ± 0.15^#**^$$ 10^9/L,3.530 ± 0.31^##**^$$ 10^9/L,687.4 ± 37.3^## 10^9/L,,21.1 ± 3.0,significant increases in total white blood cell count and total neutrophil count,increase in both the total white blood cell count and the total neutrophil count,does not have significant toxic or side effects,increase in both total white blood cell count and the platelet count,4.225 ± 0.51^##$ 10^9/L,596.2 ± 72.5^#$ 10^9/L,significantly higher,4.225 ± 0.51^##$ 10^9/L,780.2 ± 46.5^##$$ 10^9/L,3.242 ± 0.45^#$ 10^9/L,730.5 ± 34.6^##$ 10^9/L
"CC(=O)O[C@@]12CO[C@@H]1C[C@H](O)[C@@]1(C)C(=O)[C@H](O)C3=C(C)[C@@H](OC(=O)[C@H](O)[C@@H](NC(=O)OC(C)(C)C)c4ccccc4)C[C@@](O)([C@@H](OC(=O)c4ccccc4)[C@H]21)C3(C)C [Group D, Docetaxel]",0.670 ± 0.12 10^9/L,2.773 ± 0.46 10^9/L,450.6 ± 30.5 10^9/L,decreased significantly,21.2 ± 1.8,,,,,,,,,,,
